39 molecules from patent US20220411367A1, “ARYLMETHYLENE HETEROCYCLIC COMPOUNDS AS KV1.3 POTASSIUM SHAKER CHANNEL BLOCKERS” (D. E. Shaw Research, LLC, priority 2019, published 2022) can be followed below.

What is called IC50 is the concentration that inhibits the measured activity by half.

Read-outs that look alike come from different tables or passages of the source.

Data set [1] deals with T1, hERG channel (Homo sapiens, UniProt Q12809).
T1 construct: expressed in transfected cells
The data set is described as follows: hERG electrophysiology, automated whole-cell patch clamp (Patchliner). Type of data set: cell-based. As to conditions: CHO-K1 cells stably expressing hERG, whole cell current inhibition, read-out: hERG IC50. Here is the method: (§1) All compounds were dissolved in DMSO at 30 mM.
The pulse frequency was 0.3 Hz.
Data were sampled at 10 kHz without filtering.
On the technique in general: The hERG channel carries a current that helps repolarise heart muscle cells.

Data set [2] deals with T2, Kv1.3 potassium channel (Homo sapiens, UniProt P22001).
T2 construct: expressed in transfected cells
The data set is described as follows: Kv1.3 potassium channel blocker activity, automated whole-cell patch clamp (Patchliner). As to conditions: CHO-K1 cells stably expressing Kv1.3; whole cell current inhibition; read-out: Kvl.3 IC50. It is filed as cell-based. Here is the method:
This assay is used to evaluate the disclosed compounds' activities as Kv1.3 potassium channel blockers.
CHO-K1 cells stably expressing Kv1.3 were grown in DMEM containing 10% heat-inactivated FBS, 1 mM Sodium Pyruvate, 2 mM L-Glutamine and G418 (500 μg/ml).
as §1
The currents were evoked by applying 100 ms depolarizing pulses from −90 mV (holding potential) to +40 mV were applied with 0.1 Hz frequency. […] 10 second breaks were used between pulse trains (see Table A below).
Data were sampled at 10 kHz without filtering. Passive leak currents were subtracted online using a P/4 procedure (HEKA Elektronik Dr. Schulze GmbH). […] Total compound incubation time before the next pulse train was not longer than 10 seconds. Peak current inhibition was observed during compound equilibration.

T1 sequence (Q12809 whole entry): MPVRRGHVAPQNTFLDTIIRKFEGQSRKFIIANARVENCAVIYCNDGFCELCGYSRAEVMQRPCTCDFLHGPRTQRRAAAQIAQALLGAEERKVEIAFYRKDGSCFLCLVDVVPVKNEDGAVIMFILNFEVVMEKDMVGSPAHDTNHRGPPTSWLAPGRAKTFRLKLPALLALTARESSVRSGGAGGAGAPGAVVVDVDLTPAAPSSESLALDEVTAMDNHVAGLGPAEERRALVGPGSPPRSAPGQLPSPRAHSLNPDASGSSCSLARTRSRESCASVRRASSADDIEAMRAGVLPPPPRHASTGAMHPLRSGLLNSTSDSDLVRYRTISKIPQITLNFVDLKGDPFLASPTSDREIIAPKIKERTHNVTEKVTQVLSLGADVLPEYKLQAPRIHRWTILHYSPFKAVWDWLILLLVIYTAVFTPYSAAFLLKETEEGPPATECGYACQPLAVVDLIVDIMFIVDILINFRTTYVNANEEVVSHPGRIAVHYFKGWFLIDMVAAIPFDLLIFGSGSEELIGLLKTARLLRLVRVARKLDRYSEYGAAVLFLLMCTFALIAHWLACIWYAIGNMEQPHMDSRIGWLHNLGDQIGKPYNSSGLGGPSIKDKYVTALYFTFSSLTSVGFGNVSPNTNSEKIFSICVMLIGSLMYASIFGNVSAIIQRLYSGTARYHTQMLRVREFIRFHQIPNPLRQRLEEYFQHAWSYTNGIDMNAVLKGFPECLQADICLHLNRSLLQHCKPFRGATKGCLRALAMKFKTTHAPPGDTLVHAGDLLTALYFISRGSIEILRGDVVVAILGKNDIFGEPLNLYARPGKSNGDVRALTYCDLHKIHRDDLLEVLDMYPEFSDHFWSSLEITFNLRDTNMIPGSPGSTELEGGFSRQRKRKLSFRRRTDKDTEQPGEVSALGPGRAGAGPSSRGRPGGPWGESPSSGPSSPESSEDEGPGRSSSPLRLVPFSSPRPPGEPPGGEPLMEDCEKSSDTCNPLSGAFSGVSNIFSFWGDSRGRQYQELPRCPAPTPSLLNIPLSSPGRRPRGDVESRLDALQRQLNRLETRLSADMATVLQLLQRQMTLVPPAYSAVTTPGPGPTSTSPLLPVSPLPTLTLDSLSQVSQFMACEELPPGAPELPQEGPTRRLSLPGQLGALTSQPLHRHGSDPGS
T2 sequence (P22001 whole entry): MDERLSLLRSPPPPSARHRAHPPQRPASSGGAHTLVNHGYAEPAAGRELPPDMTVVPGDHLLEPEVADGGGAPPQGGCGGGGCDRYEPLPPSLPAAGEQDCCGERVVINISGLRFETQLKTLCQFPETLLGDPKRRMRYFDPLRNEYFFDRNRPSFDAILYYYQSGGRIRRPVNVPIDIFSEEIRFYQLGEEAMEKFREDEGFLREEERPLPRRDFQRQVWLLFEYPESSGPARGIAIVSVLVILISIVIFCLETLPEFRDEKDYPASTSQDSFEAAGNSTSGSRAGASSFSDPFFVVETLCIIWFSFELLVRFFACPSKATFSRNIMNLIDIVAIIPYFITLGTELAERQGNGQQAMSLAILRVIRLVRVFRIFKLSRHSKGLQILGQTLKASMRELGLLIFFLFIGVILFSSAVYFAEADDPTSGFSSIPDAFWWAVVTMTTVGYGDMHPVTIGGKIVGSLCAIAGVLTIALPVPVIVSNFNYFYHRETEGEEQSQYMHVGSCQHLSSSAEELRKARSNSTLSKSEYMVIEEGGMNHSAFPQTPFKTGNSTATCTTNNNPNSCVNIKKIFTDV

As for `OCC1CCN(Cc2cc(Cl)c(Cl)cc2O)C1` (stereo not drawn) [Compound 44, 4,5-dichloro-2-[[3-(hydroxymethyl)pyrrolidin-1-yl]methyl]phenol], the IC50 is under 30 µM in data set [1] and under 10 µM in data set [2].
On to `NCC1(N)CCN(Cc2cc(Cl)c(Cl)cc2O)CC1` [Compound 3, 2-((4-amino-4-(aminomethyl)piperidin-1-yl)methyl)-4,5-dichlorophenol], for which the values for the IC50 in data set [1] and in data set [2] were under 30 µM and under 1 µM, respectively.
In the case of `NCC1(CO)CCN(Cc2cc(Cl)c(Cl)cc2O)CC1` [Compound 5, 2-[[4-(aminomethyl)-4-(hydroxymethyl)piperidin-1-yl]methyl]-4,5-dichlorophenol], the IC50 in data set [1] is under 30 µM; in data set [2] it was under 1 µM.
As to `OCC1CN(Cc2cc(Cl)c(Cl)cc2O)CCO1` (stereo not drawn) [Compound 52, 4,5-dichloro-2-[[2-(hydroxymethyl)morpholin-4-yl]methyl]phenol], the IC50 was 30 µM in data set [1] (human, pH 7.4) and under 10 µM in data set [2].
As to `O=C(NCC1(CO)CCN(Cc2cc(Cl)c(Cl)cc2O)CC1)C(F)(F)F` [Compound 13, N-([1-[(4,5-dichloro-2-hydroxyphenyl)methyl]-4-(hydroxymethyl)piperidin-4-yl]methyl)-2,2,2-trifluoroacetamide], in data set [2], the half-inhibitory concentration (IC50) is under 1 µM.
Consider `OC[C@@H]1CCN(Cc2cc(Cl)c(Cl)cc2O)[C@@H](c2ccccc2)C1` (relative stereo) [Compound 11, 4,5-dichloro-2-(((2R,4R)-rel-4-(hydroxymethyl)-2-phenylpiperidin-1-yl)methyl)phenol], for which the IC50 in data set [2] is under 10 µM.
As for `CC(=O)NCC1(CO)CCN(Cc2cc(Cl)c(Cl)cc2O)CC1` [Compound 21, N-([1-[(4,5-dichloro-2-hydroxyphenyl)methyl]-4-(hydroxymethyl)piperidin-4-yl]methyl)acetamide], the IC50 in data set [1] was under 30 µM; in data set [2], under 1 µM.
For the molecule `O=C(C1CCN(Cc2cc(Br)c(Br)cc2O)CC1)N1CCCC1` [Compound 63, (1-(4,5-dibromo-2-hydroxybenzyl)piperidin-4-yl)(pyrrolidin-1-yl)methanone], the results for the IC50 in data set [1] and in data set [2] were under 30 µM and under 1 µM, respectively.
Taken in the same sequence, the figures for `CC(=O)N1CCN(Cc2cc(Cl)c(Cl)cc2O)CC1` [Compound 49, 1-[4-[(4,5-dichloro-2-hydroxyphenyl)methyl]piperazin-1-yl]ethan-1-one] were under 30 µM and under 10 µM.
Turning to `Oc1cc(Cl)c(Cl)cc1CN1CCC2(CCO2)CC1` [Compound 57, 4,5-dichloro-2-[1-oxa-7-azaspiro[3.5]nonan-7-ylmethyl]phenol], the results for the IC50 in data set [1] and in data set [2] were under 30 µM and under 10 µM, respectively.
Consider `OCC1CCN(C(CO)c2cc(Cl)c(Cl)cc2O)CC1` (stereo not drawn) [Compound 15, 4,5-dichloro-2-[2-hydroxy-1-[4-(hydroxymethyl)piperidin-1-yl]ethyl]phenol], for which, in data set [2], the half-inhibitory concentration (IC50) was under 10 µM.
`N#CC1(CO)CCN(Cc2cc(Cl)c(Cl)cc2O)CC1` [Compound 54, 1-[(4,5-dichloro-2-hydroxyphenyl)methyl]-4-(hydroxymethyl)piperidine-4-carbonitrile]: the IC50 is under 30 µM in data set [1] and under 10 µM in data set [2].
Take `Cc1cc(O)c(CN2CCC(CO)CC2)cc1Cl` [Compound 19, 4-chloro-2-[[4-(hydroxymethyl)piperidin-1-yl]methyl]-5-methylphenol]: the IC50 in data set [1] was over 30 µM; in data set [2] it was under 1 µM.
For `OC[C@@H]1CCN(Cc2cc(Cl)c(Cl)cc2O)[C@H](c2ccccc2)C1` (relative stereo) [Compound 10, 4,5-dichloro-2-(((2S,4R)-rel-4-(hydroxymethyl)-2-phenylpiperidin-1-yl)methyl)phenol], the half-inhibitory concentration (IC50) in data set [2] was under 10 µM.
With `OCC1(O)CCN(Cc2cc(Cl)c(Cl)cc2O)CC1` [Compound 48, 1-[(4,5-dichloro-2-hydroxyphenyl)methyl]-4-(hydroxymethyl)piperidin-4-ol], the values for the IC50 in data set [1] and in data set [2] were under 30 µM and under 10 µM, respectively.
Regarding `O=C(O)CC1CCN(Cc2cc(Cl)c(Cl)cc2O)CC1` [Compound 28, 2-(1-(4,5-dichloro-2-hydroxybenzyl)piperidin-4-yl)acetic acid], the IC50 in data set [2] was under 10 µM.
On to `OCC1CCCN(Cc2cc(Cl)c(Cl)cc2O)CC1` (stereo not drawn) [Compound 27, 4,5-dichloro-2-[[4-(hydroxymethyl)azepan-1-yl]methyl]phenol], for which the concentration for half-maximal inhibition (IC50) was under 30 µM in data set [1] and under 1 µM in data set [2].
As for `OCC1CN(Cc2cc(Cl)c(Cl)cc2O)CCN1` (stereo not drawn) [Compound 47, 4,5-dichloro-2-((3-(hydroxymethyl)piperazin-1-yl)methyl)phenol], the concentration for half-maximal inhibition (IC50) in data set [2] was under 10 µM.
For the molecule `CC(C)CC(c1cc(Cl)c(Cl)cc1O)N1CCC(CO)CC1` (stereo not drawn) [Compound 23, 4,5-dichloro-2-[1-[4-(hydroxymethyl)piperidin-1-yl]-3-methylbutyl]phenol], the half-inhibitory concentration (IC50) in data set [2] was under 10 µM.
Regarding `CC(c1cc(Cl)c(Cl)cc1O)N1CCC(CO)CC1` (stereo not drawn) [Compound 46, 4,5-dichloro-2-[1-[4-(hydroxymethyl)piperidin-1-yl]ethyl]phenol], the IC50 in data set [2] was under 10 µM.
For the molecule `COC(=O)C1CC(CO)CCN1Cc1cc(Cl)c(Cl)cc1O` (stereo not drawn) [Compound 1, methyl 1-[(4,5-dichloro-2-hydroxyphenyl)methyl]-4-(hydroxymethyl)piperidine-2-carboxylate], the IC50 in data set [2] is under 10 µM.
Still for that read-out and setting: under `C[C@@H]1C[C@@H](CO)CCN1Cc1cc(Cl)c(Cl)cc1O` (relative stereo) [Compound 24, 4,5-dichloro-2-(((2R,4S)-rel-4-(hydroxymethyl)-2-methylpiperidin-1-yl)methyl)phenol] stands under 10 µM; under `O=C1CCOC12CCN(Cc1cc(Cl)c(Cl)cc1O)CC2` [Compound 33, 8-[(4,5-dichloro-2-hydroxyphenyl)methyl]-1-oxa-8-azaspiro[4.5]decan-4-one], under 10 µM.
With `OC[C@@H]1[C@H]2CN(Cc3cc(Cl)c(Cl)cc3O)C[C@@H]12` [Compound 36, 4,5-dichloro-2-(((1R,5S,6R)-6-(hydroxymethyl)-3-azabicyclo[3.1.0]hexan-3-yl)methyl)phenol], in data set [2], the IC50 is under 10 µM.
For `Oc1cc(Cl)c(Cl)cc1CN1CCC2(CC1)OCCO2` [Compound 35, 4,5-dichloro-2-[1,4-dioxa-8-azaspiro[4.5]decan-8-ylmethyl]phenol trifluoroacetic acid], the half-inhibitory concentration (IC50) in data set [2] is under 10 µM.
`Cc1cc(CN2CCC(CO)CC2)c(O)cc1Cl` [Compound 17, 5-chloro-2-[[4-(hydroxymethyl)piperidin-1-yl]methyl]-4-methylphenol]: the 50% inhibitory concentration (IC50) in data set [2] is under 10 µM.
Turning to `CS(=O)(=O)C1CCN(Cc2cc(Cl)c(Cl)cc2O)CC1` [Compound 41, 4,5-dichloro-2-((4-(methylsulfonyl)piperidin-1-yl)methyl)phenol], the half-inhibitory concentration (IC50) in data set [2] was under 10 µM.
As to `OCC1CCCCN1Cc1cc(Cl)c(Cl)cc1O` (stereo not drawn) [Compound 34, 4,5-dichloro-2-[[2-(hydroxymethyl)piperidin-1-yl]methyl]phenol], the concentration for half-maximal inhibition (IC50) in data set [2] is under 10 µM.
Regarding `Oc1cc(Cl)c(Cl)cc1CN1CCC(n2cnnc2)CC1` [Compound 38, 4,5-dichloro-2-[[4-(4H-1,2,4-triazol-4-yl)piperidin-1-yl]methyl]phenol], in data set [2], the IC50 was under 10 µM.
On the same count and under the same terms, with `Oc1cc(Cl)c(Cl)cc1CN1CCC(O)(O)CC1` [Compound 37, 1-(4,5-dichloro-2-hydroxybenzyl)piperidine-4,4-diol trifluoroacetic acid] the figure was under 10 µM; with `OCC1CCN(Cc2cc(Cl)c(Cl)cc2O)C(CO)C1` (stereo not drawn) [Compound 2, (1-(4,5-dichloro-2-hydroxybenzyl)piperidine-2,4-diyl)dimethanol], under 10 µM; with `OCC1(F)CCN(Cc2cc(Cl)c(Cl)cc2O)CC1` [Compound 31, 4,5-dichloro-2-[[4-fluoro-4-(hydroxymethyl)piperidin-l-yl]methyl]phenol], under 10 µM.
Turning to `CC(=O)NCC1(O)CCN(Cc2cc(Cl)c(Cl)cc2O)CC1` [Compound 8, N-([1-[(4,5-dichloro-2-hydroxyphenyl)methyl]-4-hydroxypiperidin-4-yl]methyl)acetamide], in data set [2], the IC50 is under 10 µM.
For `Cc1cc(O)c(CN2CCC(CO)CC2)cc1C` [Compound 16, 2-[[4-(hydroxymethyl)piperidin-1-yl]methyl]-4,5-dimethylphenol], the half-maximal inhibitory concentration (IC50) in data set [2] was under 10 µM.
Turning to `Oc1cc(Cl)c(Cl)cc1CN1CCn2cnnc2C1` [Compound 43, 4,5-dichloro-2-[5H,6H,7H,8H-[1,2,4]triazolo[4,3-a]pyrazin-7-ylmethyl]phenol], in data set [2], the IC50 is under 10 µM.
Turning to `NCC(c1cc(Cl)c(Cl)cc1O)N1CCC(CO)CC1` (stereo not drawn) [Compound 4, 2-[2-amino-1-[4-(hydroxymethyl)piperidin-1-yl]ethyl]-4,5-dichlorophenol], the 50% inhibitory concentration (IC50) in data set [2] was under 10 µM.
For the molecule `O=C(N1CCCC1)C1(CO)CCN(Cc2cc(Cl)c(Cl)cc2O)CC1` [Compound 6, 4,5-dichloro-2-[[4-(hydroxymethyl)-4-[(pyrrolidin-1-yl)carbonyl]piperidin-1-yl]methyl]phenol], the IC50 in data set [2] was under 10 µM.
Still for that read-out and setting: under `C=CC(=O)NCC1(CO)CCN(Cc2cc(Cl)c(Cl)cc2O)CC1` [Compound 7, N-([1-[(4,5-dichloro-2-hydroxyphenyl)methyl]-4-(hydroxymethyl)piperidin-4-yl]methyl)prop-2-enamide] stands under 1 µM; under `O=C1CCC2(CCN1)CCN(Cc1cc(Cl)c(Cl)cc1O)CC2` [Compound 59, 3-(4,5-dichloro-2-hydroxybenzyl)-3,9-diazaspiro[5.6]dodecan-10-one], under 10 µM.
